Results on one molecule are retold here after patent US20250082602A1, “OPHTHALMIC COMPOSITION CONTAINING RECOFLAVONE FOR THE TREATMENT OF DRY EYE DISEASE” (GL PHARMTECH CORP., priority 2021, published 2025).

Data set [1] is described as follows: Cell permeability of dissolved recoflavone. The data set is classed as in vitro ADME. The conditions noted are these: dissolved state, high degree of ionization.
Another data set concerns rabbit eyes. Briefly: Drug distribution in eye tissues after eye drop administration to rabbit eyes. The data set is classed as in vivo. The conditions noted are these: 3% eye drop administered to rabbit eyes (data not shown). The text has this:
It has a property with low solubility at low pH. As the pH increases, it is ionized and its solubility increases.

For data set [2] the following is noted: cited from earlier work.
The next data set can be described thus: Solubility in water. The data set is classed as physicochemical. The conditions noted are these: low solubility at low pH, increases with pH.
For data set [3], the system named is human keratoconjunctival epithelial cells. The conditions noted are these: cited from earlier work.

Each structure is given as a SMILES string. Read-outs that look alike come from different tables or passages of the source.

As to `COc1ccc(-c2cc(=O)c3c(OC)cc(OCC(=O)O)cc3o2)cc1OC` [recoflavone, 2-((2-(3,4-dimethoxyphenyl)-5-methoxy-4-oxo-4H-chromen-7-yl)oxy) acetic acid], the Cell permeability result in data set [1] was “poor cell permeability”. The “Drug distribution in each tissue of eye with time” value in the data set with rabbit eyes was “rarely distributed in the tissues located inside the eye and mainly distributed in the surrounding tissues outside of the eye”. In addition, the Hygroscopicity entry in data set [2] (form of a hydrate) is “stable without hygroscopicity”; in data set [2] (form of an anhydride) it was “has hygroscopicity”. For the same molecule, the Solubility in water result in the data set “Solubility in water” is on record as “practically insoluble in water”. Further, the “Thickness of the mucin layer” value in data set [3] (100 μM solution of the active ingredient) is on record as “significantly increased”. Also, the “Mucin proteins by Western blot analysis” value in data set [3] (Western blot) is “MUC5AC only had a tendency to increase”. Further, the “Mucin expression MUC1, MUC4, MUC16 and MUC5AC by real-time PCR” value in data set [3] (real-time PCR) is “tendency to increase significantly for four hours and then decreased rapidly”.
